Reference: ChEMBL document CHEMBL1124638, “2,4-Diamino-5-benzylpyrimidines and analogues as antibacterial agents. 10. 2,4-Diamino-5-(6-quinolylmethyl)- and -[(tetrahydro-6-quinolyl)methyl]pyrimidine derivatives. Further specificity studies” (J Med Chem, 1989)
Converted amounts (≈) assume the structure as drawn.

Assays:
[1] = biological target: Dihydrofolate reductase (Neisseria gonorrhoeae, UniProt P04174); assay: Inhibitory activity against Dihydrofolate reductase in Neisseria gonorrhoeae; settings: read-out: I50
[2] = biological target: T1, Dihydrofolate reductase (Rattus norvegicus, UniProt Q920D2); assay: Inhibitory activity against dihydrofolate reductase in rat liver; settings: read-out: I50
T1 sequence (Q920D2 whole entry): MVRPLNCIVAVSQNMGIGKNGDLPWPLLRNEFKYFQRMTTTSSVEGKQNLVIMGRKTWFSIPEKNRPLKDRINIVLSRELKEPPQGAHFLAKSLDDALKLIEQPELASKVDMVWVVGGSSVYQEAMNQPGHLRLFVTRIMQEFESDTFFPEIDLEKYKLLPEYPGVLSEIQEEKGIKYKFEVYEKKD

[3] = system: Pasteurella multocida; assay: Comparative in vitro antibacterial activity with trimethoprim against Pasteurella multocida ATCC 6587; type: functional
[4] = system: Shigella flexneri; assay: Comparative in vitro antibacterial activity with trimethoprim against Shigella flexneri CN6007; type: functional
[5] = system: Klebsiella aerogenes; assay: Comparative in vitro antibacterial activity with trimethoprim against Enterobacter aerogenes 2200/86; type: functional
[6] = system: Mycolicibacterium smegmatis; assay: Comparative in vitro antibacterial activity with trimethoprim against Mycobacterium smegmatis S 3254; type: functional
[7] = system: Streptococcus agalactiae; assay: Comparative in vitro antibacterial activity with trimethoprim against Streptococcus agalactiae CN1143; type: functional
[8] = system: Enterococcus faecalis; assay: Comparative in vitro antibacterial activity with trimethoprim against Streptococcus faecalis CN478; type: functional
[9] = Comparative in vitro antibacterial activity with trimethoprim against Salmonella typhi CN512; type: functional, salmonella typhosa
[10] = system: Klebsiella pneumoniae; assay: Comparative in vitro antibacterial activity with trimethoprim against Klebsiella pneumoniae CN3632; type: functional
[11] = system: Staphylococcus aureus; assay: Comparative in vitro antibacterial activity with trimethoprim against Staphylococcus aureus CN491; type: functional
[12] = system: Streptococcus pyogenes; assay: Comparative in vitro antibacterial activity of compound with trimethoprim against Streptococcus pyogenes CN10; type: functional
[13] = system: Escherichia coli; assay: Comparative in vitro antibacterial activity with trimethoprim against Escherichia coli CN314; type: functional
[14] = system: Proteus mirabilis; assay: Comparative in vitro antibacterial activity with trimethoprim against Proteus mirabilis S2409; type: functional
[15] = system: Citrobacter freundii; assay: Comparative in vitro antibacterial activity with trimethoprim against Citrobacter freundii 2200/77; type: functional
[16] = system: Proteus vulgaris; assay: Comparative in vitro antibacterial activity with trimethoprim against Proteus vulgaris CN329; type: functional
[17] = system: Serratia marcescens; assay: Comparative in vitro antibacterial activity with trimethoprim against Serratia marcescens CN2398; type: functional
[18] = system: Bordetella bronchiseptica; assay: Comparative in vitro antibacterial activity with trimethoprim against Bordetella bronchiseptica CN385; type: functional
[19] = system: Salmonella typhimurium; assay: Comparative in vitro antibacterial activity with trimethoprim against Salmonella Typhimurium S 8587; type: functional, Salmonella enterica subsp. enterica serovar Typhimurium; settings: Salmonella enterica
[20] = system: Vibrio cholerae; assay: Comparative in vitro antibacterial activity with trimethoprim against Vibrio cholerae ATCC 14035; type: functional

Dihydrofolate reductase (Neisseria gonorrhoeae, UniProt P04174), sequence (P04174 whole entry): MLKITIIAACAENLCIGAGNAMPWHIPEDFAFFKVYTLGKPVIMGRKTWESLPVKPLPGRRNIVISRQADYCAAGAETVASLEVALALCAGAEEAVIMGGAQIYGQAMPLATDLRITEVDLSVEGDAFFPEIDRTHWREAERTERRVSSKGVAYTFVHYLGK

| Structure (SMILES) | IC50 [1] [nM] | IC50 [2] [µM] | MIC [3] [µg/mL] | MIC [4] [µg/mL] | MIC [5] [µg/mL] | MIC [6] [µg/mL] | MIC [7] [µg/mL] | MIC [8] [µg/mL] | MIC [9] [µg/mL] | MIC [10] [µg/mL] | MIC [11] [µg/mL] | MIC [12] [µg/mL] | MIC [13] [µg/mL] | MIC [14] [µg/mL] | MIC [15] [µg/mL] | MIC [16] [µg/mL] | MIC [17] [µg/mL] | MIC [18] [µg/mL] | MIC [19] [µg/mL] | MIC [20] [µg/mL] |
| --- | --- | --- | --- | --- | --- | --- | --- | --- | --- | --- | --- | --- | --- | --- | --- | --- | --- | --- | --- | --- |
| CCOC(=O)C1CNc2c(OC)cc(Cc3cnc(N)nc3N)c(OC)c2C1 (centres undefined) | 1900 | 142 |  |  |  |  |  |  |  |  |  |  |  |  |  |  |  |  |  |  |
| COc1cc(Cc2cnc(N)nc2N)cc2c1N(CCOC(C)=O)CCC2C (centres undefined) | 630 | 190 | 10 (≈ 25.9 µM) | 30 (≈ 77.8 µM) | 30 (≈ 77.8 µM) | 3 (≈ 7.78 µM) | 1 (≈ 2.59 µM) | 1 (≈ 2.59 µM) | 30 (≈ 77.8 µM) | 10 (≈ 25.9 µM) | 3 (≈ 7.78 µM) | 10 (≈ 25.9 µM) | 30 (≈ 77.8 µM) | 30 (≈ 77.8 µM) | 10 (≈ 25.9 µM) | 10 (≈ 25.9 µM) | > 10 | 3 (≈ 7.78 µM) | 30 (≈ 77.8 µM) | 10 (≈ 25.9 µM) |
| COc1cc(Cc2cnc(N)nc2N)cc2cccnc12 |  | 12 | 3 (≈ 10.7 µM) | 3 (≈ 10.7 µM) | 3 (≈ 10.7 µM) | 1 (≈ 3.55 µM) | 3 (≈ 10.7 µM) | 3 (≈ 10.7 µM) | 3 (≈ 10.7 µM) | 3 (≈ 10.7 µM) | 3 (≈ 10.7 µM) | 3 (≈ 10.7 µM) | 3 (≈ 10.7 µM) | 3 (≈ 10.7 µM) | 10 (≈ 35.5 µM) | 3 (≈ 10.7 µM) | 1 (≈ 3.55 µM) | 30 (≈ 107 µM) | 3 (≈ 10.7 µM) | 1 (≈ 3.55 µM) |
| COc1cc(Cc2cnc(N)nc2N)cc2c(C)ccnc12 |  |  | 1 (≈ 3.39 µM) | 1 (≈ 3.39 µM) | 1 (≈ 3.39 µM) | 0.3 (≈ 1.02 µM) | 1 (≈ 3.39 µM) | 1 (≈ 3.39 µM) | 1 (≈ 3.39 µM) | 1 (≈ 3.39 µM) | 0.3 (≈ 1.02 µM) | 1 (≈ 3.39 µM) | 1 (≈ 3.39 µM) | 1 (≈ 3.39 µM) | 3 (≈ 10.2 µM) | 1 (≈ 3.39 µM) | 1 (≈ 3.39 µM) | 3 (≈ 10.2 µM) | 3 (≈ 10.2 µM) | 0.3 (≈ 1.02 µM) |
| Cc1ccnc2ccc(Cc3cnc(N)nc3N)c(N)c12 |  | 15 | 300 (≈ 1070 µM) | 100 (≈ 357 µM) | 300 (≈ 1070 µM) | 100 (≈ 357 µM) | 100 (≈ 357 µM) | 10 (≈ 35.7 µM) | 100 (≈ 357 µM) | 100 (≈ 357 µM) | 30 (≈ 107 µM) | 30 (≈ 107 µM) | 100 (≈ 357 µM) | 30 (≈ 107 µM) | 100 (≈ 357 µM) | > 100 | > 10 | > 100 | 100 (≈ 357 µM) | 100 (≈ 357 µM) |
| CCN1CCC(C)c2cc(Cc3cnc(N)nc3N)ccc21 (centres undefined) | 690 | 38 | 30 (≈ 101 µM) | 100 (≈ 336 µM) | 100 (≈ 336 µM) | 10 (≈ 33.6 µM) | 3 (≈ 10.1 µM) | 3 (≈ 10.1 µM) | 100 (≈ 336 µM) | 100 (≈ 336 µM) | 3 (≈ 10.1 µM) |  | 100 (≈ 336 µM) | 30 (≈ 101 µM) | 100 (≈ 336 µM) | 100 (≈ 336 µM) | > 30 | 100 (≈ 336 µM) | 100 (≈ 336 µM) | 10 (≈ 33.6 µM) |
| COc1cc(Cc2cnc(N)nc2N)cc2c(C)cc(C)nc12 |  | 43 | 1 (≈ 3.23 µM) | 3 (≈ 9.7 µM) | 3 (≈ 9.7 µM) | 1 (≈ 3.23 µM) | 1 (≈ 3.23 µM) | 1 (≈ 3.23 µM) | 1 (≈ 3.23 µM) | 1 (≈ 3.23 µM) | 0.3 (≈ 0.97 µM) | 0.1 (≈ 0.323 µM) | 3 (≈ 9.7 µM) | 0.3 (≈ 0.97 µM) | 3 (≈ 9.7 µM) | 3 (≈ 9.7 µM) | 1 (≈ 3.23 µM) | 3 (≈ 9.7 µM) | 3 (≈ 9.7 µM) | 0.3 (≈ 0.97 µM) |
| Nc1ncc(Cc2ccc3ncccc3c2)c(N)n1 |  | 18 | 10 (≈ 39.8 µM) | 10 (≈ 39.8 µM) | 3 (≈ 11.9 µM) | 0.3 (≈ 1.19 µM) | 3 (≈ 11.9 µM) | 3 (≈ 11.9 µM) | 10 (≈ 39.8 µM) | 3 (≈ 11.9 µM) | 30 (≈ 119 µM) | 3 (≈ 11.9 µM) | 3 (≈ 11.9 µM) | 3 (≈ 11.9 µM) | 10 (≈ 39.8 µM) | 10 (≈ 39.8 µM) | 3 (≈ 11.9 µM) | 10 (≈ 39.8 µM) | 10 (≈ 39.8 µM) | 3 (≈ 11.9 µM) |
| CCOC(=O)C1CNc2c(cc(Cc3cnc(N)nc3N)cc2OC)C1 (centres undefined) |  | 44 | 30 (≈ 83.9 µM) | 10 (≈ 28 µM) | 10 (≈ 28 µM) | 30 (≈ 83.9 µM) | 10 (≈ 28 µM) | 30 (≈ 83.9 µM) | 100 (≈ 280 µM) | 100 (≈ 280 µM) | 30 (≈ 83.9 µM) | 3 (≈ 8.39 µM) | 30 (≈ 83.9 µM) | > 30 | 10 (≈ 28 µM) | > 100 | > 10 | > 100 | 30 (≈ 83.9 µM) | 30 (≈ 83.9 µM) |
